Source: patent publication US9284297B2, “Halofuginone analogs for inhibition of tRNA synthetases and uses thereof” (President and Fellows of Harvard College, priority 2008, dated 2016)

Key:
[1] = test system: CD4+ CD25− T cells (Th1, Th2, iTreg differentiation, proliferation, CD25), CD8+ T cells, B cells; conditions: cited from earlier work
[2] = test system: Differentiation of primary naïve T-cells into Th17 cells; test: Inhibition of Th17 differentiation of primary naïve T-cells by halofuginone analogs; assay type: cell-based, murine; design: key: “+++” vs. “++” vs. “+” in general denotes ˜4-fold differences in potency; “+++” vs. “++” vs. “+” in general denotes ˜4-fold differences in potency; “+++” vs. “++” vs. “+” in general denotes ˜4-fold differences in potency; “−” denotes no activity at any dose tested, up to 1000× the effective dose of halofuginone; conditions: T-cell receptor stimulation+IL-6+TGFb
Procedure: Naïve T-cells were stimulated to differentiate in the presence or absence of 10 nM halofuginone, with 1 mM of the indicated amino acids added to the medium, and stained for Th17 differentiation on day 4. Naïve murine T cells were activated in the presence or absence of TGFβ plus IL-6 as indicated, expanded in for 4 days and restimulated with PMA and ionomycin for intracellular cytokine staining. […] Bars indicate percentage of cells differentiation as Th17 as indicated by IL17 expression.
The effect of different halofuginone and analogs thereof on differentiation of naïve T-cells was assayed as described in legend for FIG. 4 above. Differentiation of primary naïve T-cells into Th17 cells following T-cell receptor stimulation+IL-6+TGFb. “+++” vs. “++” vs. “+” in general denotes ˜4-fold differences in potency. “−” denotes no activity at any dose tested, up to 1000× the effective dose of halofuginone.

STAT3 phosphorylation = test: Kinetics of STAT3 phosphorylation in developing Th17 cells; assay type: cell-based, murine; conditions: TGFβ plus IL-6; 5 nM or 10 nM HF
Procedure: FIG. 6. […] FIG. 6A is a set of representative histograms displaying the kinetics of STAT3 phosphorylation in developing Th17 cells treated with or without halofuginone. Resting naïve T cells (grey, shaded peak), T cells activated in the presence of TGFβ plus IL-6 (TGFβ/IL-6) treated with 10 nM MAZ1310 (light gray trace), 5 nM HF (medium gray trace), or 10 nM HF (dark gray trace). T cells were fixed at the indicated times and intracellular phospho-STAT3 staining was performed.
Th17 differentiation is synergistically regulated by TGFβ and the pro-inflammatory cytokines IL-6 and IL-21. […] Since STAT3 is the major transducer of IL-6 and IL-21 signaling, the kinetics of STAT3 phosphorylation in HF-treated T cells were examined.

[3] = target: T1, methionyl tRNA synthetase (Oryctolagus cuniculus, UniProt G1SSX5); test: Incorporation of 35S-labeled methionine into tRNA in rabbit reticulocyte lysate; assay type: biochemical; conditions: crude in vitro translation system
T1 construct: from tissue; host or cells: rabbit reticulocyte lysate
T1 sequence (G1SSX5 1-900): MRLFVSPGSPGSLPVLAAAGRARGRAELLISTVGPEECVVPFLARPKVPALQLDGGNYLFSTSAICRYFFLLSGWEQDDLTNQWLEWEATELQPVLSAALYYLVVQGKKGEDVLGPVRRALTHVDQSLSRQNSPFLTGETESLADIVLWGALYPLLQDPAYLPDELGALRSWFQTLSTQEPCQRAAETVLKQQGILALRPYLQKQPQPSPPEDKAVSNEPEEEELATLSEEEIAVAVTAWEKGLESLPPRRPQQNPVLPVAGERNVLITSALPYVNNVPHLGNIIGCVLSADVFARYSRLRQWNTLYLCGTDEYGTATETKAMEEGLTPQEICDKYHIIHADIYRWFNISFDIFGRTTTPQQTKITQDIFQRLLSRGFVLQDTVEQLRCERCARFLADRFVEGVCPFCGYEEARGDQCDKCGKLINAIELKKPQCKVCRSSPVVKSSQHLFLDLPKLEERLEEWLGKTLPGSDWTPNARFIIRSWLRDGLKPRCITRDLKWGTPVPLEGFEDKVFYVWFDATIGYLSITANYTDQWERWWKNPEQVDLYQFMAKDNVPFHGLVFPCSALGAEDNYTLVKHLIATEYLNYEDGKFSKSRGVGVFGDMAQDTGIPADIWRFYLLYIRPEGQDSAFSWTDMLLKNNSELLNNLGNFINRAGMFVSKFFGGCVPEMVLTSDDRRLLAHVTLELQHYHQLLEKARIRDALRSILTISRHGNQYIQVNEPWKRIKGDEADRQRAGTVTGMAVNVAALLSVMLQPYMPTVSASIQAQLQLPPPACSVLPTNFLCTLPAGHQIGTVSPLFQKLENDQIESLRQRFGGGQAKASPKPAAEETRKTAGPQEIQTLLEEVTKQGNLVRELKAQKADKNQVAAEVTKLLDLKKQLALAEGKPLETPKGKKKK
Procedure: Total RNA was extracted with acidic phenol-chloroform and tRNA was isolated using miRVANA microRNA isolation kit. Radioisotope incorporation into tRNA was measured in a scintillation counter.

O=C(CC1NCCCC1O)Cn1cnc2cc(Br)c(Cl)cc2c1=O (stereo not shown) [Compound 1, 7-bromo-6-chloro-3-[3-(3-hydroxy-2-piperidinyl)-2-oxopropyl]-4(3H)-quinazolinone]
concentrations that generally inhibit CD4+ T cell, CD8+ T cell, and B220+ B cell activation [1]: 20 to 40 nM | Inhibition of Th17 differentiation [2]: +++ | STAT3 phosphorylation (STAT3 phosphorylation): decreased the maintenance of STAT3 phosphorylation, beginning around 12 hours post activation | inhibition of 35S methionine incorporation into tRNA [3]: not a different tRNA synthetase (methionyl tRNA synthetase)
